Laboratory results: ChEMBL document CHEMBL1137963, “New oligomers of conduritol-F and muco-inositol. Synthesis and biological evaluation as glycosidase inhibitors” (Bioorg Med Chem Lett, 2004)
Activity calls are given as the source filed them. No cut-off for these calls is given here.

Experiments:
[1] = molecular target: T1, Beta-mannosidase (Rattus norvegicus) (UniProt Q4FZV0); assay: Concentration required to inhibit beta-mannosidase
T1 sequence (whole entry): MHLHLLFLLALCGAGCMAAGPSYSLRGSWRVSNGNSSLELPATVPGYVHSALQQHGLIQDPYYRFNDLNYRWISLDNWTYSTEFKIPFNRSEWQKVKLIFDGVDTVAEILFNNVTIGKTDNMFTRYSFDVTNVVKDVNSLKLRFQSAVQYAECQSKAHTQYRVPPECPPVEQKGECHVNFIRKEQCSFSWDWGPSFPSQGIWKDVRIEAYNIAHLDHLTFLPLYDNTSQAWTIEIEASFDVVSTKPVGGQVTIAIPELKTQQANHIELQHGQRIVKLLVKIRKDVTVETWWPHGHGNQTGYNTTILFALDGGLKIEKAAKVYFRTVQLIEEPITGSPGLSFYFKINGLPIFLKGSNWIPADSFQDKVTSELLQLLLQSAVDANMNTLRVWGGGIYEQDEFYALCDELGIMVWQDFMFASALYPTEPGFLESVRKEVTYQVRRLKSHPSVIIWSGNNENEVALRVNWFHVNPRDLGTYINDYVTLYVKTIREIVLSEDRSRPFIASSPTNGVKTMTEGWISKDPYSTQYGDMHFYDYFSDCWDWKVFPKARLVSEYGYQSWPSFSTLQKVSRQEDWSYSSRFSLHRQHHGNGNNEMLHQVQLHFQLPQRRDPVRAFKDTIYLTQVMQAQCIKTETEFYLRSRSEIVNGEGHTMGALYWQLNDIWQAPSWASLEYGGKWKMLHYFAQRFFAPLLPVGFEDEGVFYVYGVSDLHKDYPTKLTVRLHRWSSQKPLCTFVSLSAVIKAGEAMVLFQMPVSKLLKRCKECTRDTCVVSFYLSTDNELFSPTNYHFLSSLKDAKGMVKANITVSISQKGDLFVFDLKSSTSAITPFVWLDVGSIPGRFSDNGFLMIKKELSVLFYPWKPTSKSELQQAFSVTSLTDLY

[2] = molecular target: Maltase-glucoamylase (Homo sapiens) (UniProt O43451); assay: Concentration required to inhibit alpha-glucosidase; IA means inactive
Maltase-glucoamylase (Homo sapiens), sequence (O43451 whole entry, looked up): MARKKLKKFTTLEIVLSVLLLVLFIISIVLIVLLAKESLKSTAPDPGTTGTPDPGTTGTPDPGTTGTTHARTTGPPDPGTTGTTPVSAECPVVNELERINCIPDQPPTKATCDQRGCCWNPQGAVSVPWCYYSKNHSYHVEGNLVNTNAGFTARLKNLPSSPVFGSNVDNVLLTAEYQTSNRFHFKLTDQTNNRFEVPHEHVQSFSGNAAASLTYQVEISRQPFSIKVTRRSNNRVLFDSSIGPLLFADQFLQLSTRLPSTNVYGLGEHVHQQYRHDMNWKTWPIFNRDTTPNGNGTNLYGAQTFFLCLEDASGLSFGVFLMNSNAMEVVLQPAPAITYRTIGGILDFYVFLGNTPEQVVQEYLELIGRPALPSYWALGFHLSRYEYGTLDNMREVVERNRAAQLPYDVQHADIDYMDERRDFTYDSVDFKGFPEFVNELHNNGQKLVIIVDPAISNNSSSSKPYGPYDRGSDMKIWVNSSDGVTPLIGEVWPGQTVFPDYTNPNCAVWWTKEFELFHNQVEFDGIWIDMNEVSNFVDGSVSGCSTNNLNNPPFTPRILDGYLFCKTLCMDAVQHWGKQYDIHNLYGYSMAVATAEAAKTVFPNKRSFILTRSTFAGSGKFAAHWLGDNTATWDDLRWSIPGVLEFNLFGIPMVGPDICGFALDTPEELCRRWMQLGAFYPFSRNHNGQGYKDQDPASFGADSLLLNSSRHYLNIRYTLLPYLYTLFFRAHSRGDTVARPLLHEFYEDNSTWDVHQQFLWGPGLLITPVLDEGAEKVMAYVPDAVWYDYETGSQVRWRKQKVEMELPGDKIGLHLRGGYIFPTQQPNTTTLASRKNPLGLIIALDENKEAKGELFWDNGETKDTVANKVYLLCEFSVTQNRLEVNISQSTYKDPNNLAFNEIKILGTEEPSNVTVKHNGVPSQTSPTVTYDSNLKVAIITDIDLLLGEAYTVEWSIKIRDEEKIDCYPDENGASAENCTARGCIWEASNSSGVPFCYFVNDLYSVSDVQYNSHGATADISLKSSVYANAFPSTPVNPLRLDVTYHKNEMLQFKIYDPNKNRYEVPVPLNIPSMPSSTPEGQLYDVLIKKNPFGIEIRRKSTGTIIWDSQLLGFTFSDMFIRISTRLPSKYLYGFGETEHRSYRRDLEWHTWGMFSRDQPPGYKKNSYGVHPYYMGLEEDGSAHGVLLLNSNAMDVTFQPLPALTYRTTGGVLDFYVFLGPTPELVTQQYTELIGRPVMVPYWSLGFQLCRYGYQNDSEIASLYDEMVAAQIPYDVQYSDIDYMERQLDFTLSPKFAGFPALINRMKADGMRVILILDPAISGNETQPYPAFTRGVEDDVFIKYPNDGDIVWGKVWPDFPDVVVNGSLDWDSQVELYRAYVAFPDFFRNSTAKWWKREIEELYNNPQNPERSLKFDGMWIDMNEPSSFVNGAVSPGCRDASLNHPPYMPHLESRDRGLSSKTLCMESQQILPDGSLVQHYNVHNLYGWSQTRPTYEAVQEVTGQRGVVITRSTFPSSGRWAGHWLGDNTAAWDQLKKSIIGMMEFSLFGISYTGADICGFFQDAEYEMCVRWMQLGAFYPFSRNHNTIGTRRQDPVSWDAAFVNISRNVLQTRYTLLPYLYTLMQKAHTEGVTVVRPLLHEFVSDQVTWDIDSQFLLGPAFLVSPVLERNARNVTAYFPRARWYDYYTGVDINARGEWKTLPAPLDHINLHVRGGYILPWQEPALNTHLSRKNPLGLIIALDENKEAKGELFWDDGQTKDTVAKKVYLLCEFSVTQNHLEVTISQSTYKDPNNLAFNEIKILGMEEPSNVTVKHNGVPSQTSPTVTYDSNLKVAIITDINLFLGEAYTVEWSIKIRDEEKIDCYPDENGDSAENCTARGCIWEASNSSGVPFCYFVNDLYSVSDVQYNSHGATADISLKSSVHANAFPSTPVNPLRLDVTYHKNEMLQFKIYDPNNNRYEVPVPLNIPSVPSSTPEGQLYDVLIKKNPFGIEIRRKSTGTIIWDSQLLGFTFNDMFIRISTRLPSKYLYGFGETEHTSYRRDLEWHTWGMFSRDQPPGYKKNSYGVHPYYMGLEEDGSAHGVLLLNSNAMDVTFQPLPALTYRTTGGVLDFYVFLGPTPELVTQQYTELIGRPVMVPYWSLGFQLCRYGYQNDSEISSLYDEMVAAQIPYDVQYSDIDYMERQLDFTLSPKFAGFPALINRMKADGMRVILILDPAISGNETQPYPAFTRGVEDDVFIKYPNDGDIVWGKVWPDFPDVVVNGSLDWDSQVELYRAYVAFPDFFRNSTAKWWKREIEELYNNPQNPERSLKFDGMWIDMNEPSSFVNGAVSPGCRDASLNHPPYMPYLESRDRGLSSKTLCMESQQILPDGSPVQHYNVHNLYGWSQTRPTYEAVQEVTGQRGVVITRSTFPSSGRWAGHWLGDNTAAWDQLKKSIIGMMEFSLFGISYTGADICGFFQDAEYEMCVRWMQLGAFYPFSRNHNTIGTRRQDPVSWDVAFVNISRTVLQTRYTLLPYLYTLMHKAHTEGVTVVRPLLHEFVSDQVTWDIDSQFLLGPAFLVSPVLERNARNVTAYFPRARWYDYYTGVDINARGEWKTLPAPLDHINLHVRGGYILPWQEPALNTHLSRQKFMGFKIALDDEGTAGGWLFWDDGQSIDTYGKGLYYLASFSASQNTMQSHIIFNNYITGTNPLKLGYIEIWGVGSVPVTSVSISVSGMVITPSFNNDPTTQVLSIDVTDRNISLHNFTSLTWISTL

[3] = molecular target: T2, Alpha-galactosidase A (Homo sapiens) (UniProt P06280); assay: Concentration required to inhibit alpha-galactocosidase
T2 sequence (whole entry): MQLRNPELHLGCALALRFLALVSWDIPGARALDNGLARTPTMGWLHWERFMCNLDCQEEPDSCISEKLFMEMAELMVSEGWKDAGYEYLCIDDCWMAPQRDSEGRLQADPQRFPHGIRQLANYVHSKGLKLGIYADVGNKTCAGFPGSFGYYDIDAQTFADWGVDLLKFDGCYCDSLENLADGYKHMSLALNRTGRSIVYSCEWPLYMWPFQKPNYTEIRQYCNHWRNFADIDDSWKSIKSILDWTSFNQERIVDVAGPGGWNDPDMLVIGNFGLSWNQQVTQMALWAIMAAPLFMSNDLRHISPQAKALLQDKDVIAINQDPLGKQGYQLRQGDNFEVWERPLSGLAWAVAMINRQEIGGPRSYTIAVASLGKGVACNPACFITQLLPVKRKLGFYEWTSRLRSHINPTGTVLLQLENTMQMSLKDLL

[4] = molecular target: T3, Beta-galactosidase (Homo sapiens) (UniProt P16278); assay: Concentration required to inhibit beta-galactosidase
T3 sequence (whole entry): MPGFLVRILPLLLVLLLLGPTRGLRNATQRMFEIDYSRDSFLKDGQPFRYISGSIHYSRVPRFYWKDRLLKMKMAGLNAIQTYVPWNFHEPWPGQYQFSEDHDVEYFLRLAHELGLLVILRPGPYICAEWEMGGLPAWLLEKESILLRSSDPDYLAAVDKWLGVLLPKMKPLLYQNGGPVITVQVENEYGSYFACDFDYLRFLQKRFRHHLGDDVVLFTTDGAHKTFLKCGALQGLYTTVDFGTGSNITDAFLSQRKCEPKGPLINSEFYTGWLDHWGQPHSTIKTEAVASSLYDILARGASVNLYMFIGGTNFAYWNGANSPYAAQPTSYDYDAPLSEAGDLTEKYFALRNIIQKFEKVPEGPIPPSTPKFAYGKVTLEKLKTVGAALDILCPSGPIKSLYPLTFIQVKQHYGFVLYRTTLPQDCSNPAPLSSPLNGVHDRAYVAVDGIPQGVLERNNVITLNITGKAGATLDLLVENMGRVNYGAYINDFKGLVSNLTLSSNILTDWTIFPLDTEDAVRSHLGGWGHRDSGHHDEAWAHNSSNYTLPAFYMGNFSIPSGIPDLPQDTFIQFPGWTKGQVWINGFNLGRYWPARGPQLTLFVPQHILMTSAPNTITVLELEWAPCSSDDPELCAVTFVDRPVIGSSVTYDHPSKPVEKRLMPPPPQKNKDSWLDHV

[5] = molecular target: Beta-glucosidase A (Caldicellulosiruptor saccharolyticus) (UniProt P10482); assay: Concentration required to inhibit beta-glucosidase; IA means inactive
Beta-glucosidase A (Caldicellulosiruptor saccharolyticus), sequence (P10482 whole entry): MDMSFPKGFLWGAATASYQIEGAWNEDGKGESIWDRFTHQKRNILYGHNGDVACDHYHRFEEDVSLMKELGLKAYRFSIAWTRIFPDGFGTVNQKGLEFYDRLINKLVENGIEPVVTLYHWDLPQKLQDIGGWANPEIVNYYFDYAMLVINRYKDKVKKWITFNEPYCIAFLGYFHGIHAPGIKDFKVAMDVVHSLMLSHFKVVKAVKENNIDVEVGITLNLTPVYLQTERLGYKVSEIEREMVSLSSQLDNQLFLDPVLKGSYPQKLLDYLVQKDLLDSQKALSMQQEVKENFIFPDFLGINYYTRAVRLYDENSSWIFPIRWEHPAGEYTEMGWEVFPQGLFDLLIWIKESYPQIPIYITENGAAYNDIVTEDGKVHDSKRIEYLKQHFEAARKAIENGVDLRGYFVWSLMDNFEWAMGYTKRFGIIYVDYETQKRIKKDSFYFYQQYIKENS

[6] = Concentration required to inhibit alpha-mannosidase; IA means inactive
[7] = molecular target: T1, Beta-mannosidase (Rattus norvegicus); assay: Concentration required to inhibit beta-mannosidase; IA means inactive
[8] = molecular target: Maltase-glucoamylase (Homo sapiens) (UniProt O43451); assay: Concentration required to inhibit alpha-glucosidase
[9] = molecular target: T2, Alpha-galactosidase A (Homo sapiens); assay: Concentration required to inhibit alpha-galactocosidase; IA means inactive
[10] = molecular target: T3, Beta-galactosidase (Homo sapiens); assay: Concentration required to inhibit beta-galactosidase; IA means inactive

Row | Concentration [1] [mM] | Concentration [2] | Concentration [3] [µM] | Concentration [4] [µM] | Concentration [5] | Concentration [6] | Concentration [7] | Concentration [8] [µM] | Concentration [9] | Concentration [10] | Compound
1 | 1.5 | inactive | 275 | 250 | inactive | inactive | – | – | – | – | O[C@H]1[C@H](O)[C@@H](O[C@H]2C=C[C@@H](O)[C@@H](O)[C@@H]2O)C=C[C@H]1O
2 | – | – | 850 | 190 | inactive | inactive | inactive | 60 | – | – | O[C@H]1[C@H](O)[C@@H](O[C@H]2[C@H](O)[C@H](O)C=C[C@@H]2O)C=C[C@H]1O
3 | – | inactive | – | 600 | inactive | inactive | inactive | – | inactive | – | O[C@H]1[C@H](O)[C@@H](O)C=C[C@H]1O
4 | – | inactive | – | – | inactive | inactive | inactive | – | inactive | inactive | O[C@H]1[C@H](O)[C@@H](O)[C@H](O)[C@@H](O)[C@H]1O
5 | – | – | – | 600 | inactive | inactive | inactive | 800 | inactive | – | O[C@@H]1[C@@H](O)[C@@H](O)[C@H](O[C@H]2[C@@H](O)[C@H](O)[C@@H](O)[C@@H](O)[C@@H]2O)[C@@H](O)[C@H]1O
